# Literature values in patent US11497761B2, “Compositions for the treatment of metastatic cancer” (priority 2019, dated 2022).
# How the values were obtained:
# [1] = tested on: Ehrlich ascites tumor cells; conditions: in vitro, Kato et al. 1971; cited from earlier work
# PGC-1α = conditions: cultured C2C12 myotubes; cited from earlier work
# [2] = Kato et al. 1971; cited from earlier work
compound,measurement,setting,value
"CCCCCCCCCCCCCCCC(=O)O [Hexadecanoic, Hexadecanoic acid]",anticancer activity,[1],most active
"CCCCCCCCCCCC(=O)O [lauric acid, dodecanoic acid]",expression of PGC-1α,PGC-1α,did not alter expression
"CCCCCCCC/C=C\CCCCCCCC(=O)O [octadecenoic, octadecenoic acid]",solubility,[2],poorly soluble
"CCCCCCCCCCCCCCCCCC(=O)O [octadeconoic, octadeconoic acid]",anticancer activity,[1],most active
lauric sucrose ester,anticancer activity,[1],only weak activity
octadecadienoic acid,anticancer activity,[1],most active
